The values that follow come from patent US8013176B2, “Paricalcitol purification” (Alphora Research Inc., priority 2008, dated 2011).

Series [1] can be described thus: Accelerated storage stability studies, purity by HPLC. It counts as physicochemical. On the procedure:
Samples “a” were placed in glass bottles and sealed in a Marvel seal bag under an argon head space, all air having been removed. These were stored at a temperature of 40±2° C. and relative humidity of 75±2%. Samples “b” were similarly packaged and sealed under argon headspace, but stored at 25±2° C. and 60±5% relative humidity. Samples “c” were similarly packaged and sealed under argon headspace, but stored at 5±3° C. Samples “e”, comparative standards, were similarly packaged and sealed under argon headspace, but stored at −20±5° C.
Samples “d” and “f” were placed in glass bottles, but without a marvel seal bag, and stored under air headspace −20±5° C. (samples “d”) and 40±2° C. and relative humidity of 75±2% (samples “f”).
Samples stored at elevated or reduced temperatures were brought to room temperature just prior to sample preparation.
Purity determinations were conducted by High Performance Liquid Chromatography (HPLC), using a Waters Sunfire C18 HPLC Column, 250 by 4.6 mm, with a quaternary or binary HPLC pump, a variable wavelength or photo diode array UV/visible detector set to 252 nm, and an autosampler. Water (degassed) and acetonitrile (degassed) were used as the mobile phase. The column temperature was 25° C., the flow rate 2.0 mL/min with an injection volume of 100 μL and a run time of 60 minutes.

Series [2] is described as follows: ICH test protocol storage stability. The series is classed as physicochemical. Conditions: argon headspace, 6 months.

As to `C[C@H](/C=C/[C@H](C)C(C)(C)O)[C@H]1CC[C@H]2/C(=C/C=C3C[C@@H](O)C[C@H](O)C3)CCC[C@]12C` [Paricalcitol, 1α,25-dihydroxy-19-nor-vitamin D2], the “change in purity on storage” value in series [1] (air headspace, 1 month, 40±2° C., 75%±2% relative humidity, paricalcitol of at least 99.9% purity) is “no reduction in purity”; in series [1] (argon headspace, 5 months, 40±2° C., 75±2% relative humidity) it was “no reduction in purity”; in series [2] (5±3° C.), “no reduction in purity”; in series [2] (−20±5° C.), “no reduction in purity”. Besides, the purity after storage came out at 99.9% in series [1] (samples a: argon headspace, 40±2° C., 75±2% relative humidity, 1 month); 99.9% in series [1] (samples a: argon headspace, 40±2° C., 75±2% relative humidity, 5 months); 99.9% in series [1] (samples b: argon headspace, 25±2° C., 60±5% relative humidity, 1 month); 99.8% in series [1] (samples b: argon headspace, 25±2° C., 60±5% relative humidity, 5 months); 99.9% in series [1] (samples c: argon headspace, 5±3° C., 1 month); 99.9% in series [1] (samples c: argon headspace, 5±3° C., 2 months). For the same compound, the purity after storage came out at 99.9% in series [1] (samples c: argon headspace, 5±3° C., 5 months); 99.9% in series [1] (samples d: air headspace, −20±5° C., 1 month); 99.9% in series [1] (samples d: air headspace, −20±5° C., 5 months); 99.9% in series [1] (samples e: argon headspace, −20±5° C., 1 month); 99.9% in series [1] (samples e: argon headspace, −20±5° C., 2 months); 99.9% in series [1] (samples e: argon headspace, −20±5° C., 5 months). The compound also returned a purity after storage in series [1] (samples f: air headspace, 40±2° C., 75±2% relative humidity, 1 month) of 99.9%.
